Absorption maximum data for 37 compounds are collected here from the Deep4Chem optical property database.

SMILES strings stand for the structures.

The series is described as follows: solvent given as SMILES.

Regarding `Cn1nc(-c2ccccc2)c2n[nH]nc2/c1=N\c1ccccn1`, the absorption maximum runs as follows: (in CC#N) 402 nm; (in CCO) 382 nm; (in Cc1ccccc1) 410 nm.
`COc1cccc(C2=C3C=C(/C=C/C(=O)OC(C)(C)C)C=[N+]3[B-](F)(F)n3cccc32)c1` had an absorption maximum (in ClCCl) of 539 nm.
Take `Nc1cc2nc3cc(Cl)c(Cl)cc3nc2cc1N`: the absorption maximum (in CCO) is on record as 442 nm.
Under “in ClCCl”, `CCCCn1c(-c2ccc(-c3nnc(-c4ccc5ccccc5c4)o3)cc2)nc2c3ccccc3c3ccccc3c21` came in with an absorption maximum of 363 nm.
Same read-out and setting: the figure for `CN1c2ccc3c(c2-c2ccccc2S1(=O)=O)-c1ccccc1S(=O)(=O)N3C` is 350 nm.
`N#Cc1nn(-c2ccc(Cl)cc2)nc1N1CCCC1` had an absorption maximum (in CC#N) of 346 nm.
As for `c1ccc2c(c1)Nc1ccccc1B2c1c2ccccc2cc2ccccc12`, the absorption maximum is, setting by setting: (in ClCCl) 394 nm; (in c1ccccc1) 394 nm.
The compound `CCCCC1(c2ccccc2)Nc2c(-c3ccc(N(C)c4ccccc4)cc3)ccc(-c3ccc(N(C)c4ccccc4)cc3)c2N=C1c1ccccc1` (centres undefined) gave an absorption maximum (in ClC(Cl)Cl) of 380 nm.
In the case of `Cc1cc(C)c(C2=C3C=C(/C=C/C(=O)OC(C)(C)C)C=[N+]3[B-](F)(F)n3c2ccc3N2CCCC2)c(C)c1`, the absorption maximum (in ClCCl) is on record as 479 nm.
Take `O=c1c2ccccc2n(-c2ccc(-c3ccc(-n4c5ccccc5c5ccccc54)cc3)cc2)c2ccccc12`: the absorption maximum (in ClCCl) was determined as 394 nm.
In the case of `CC(C)[Si](C#Cc1c2ccccc2c(C#Cc2c3ccccc3c(C#Cc3c4ccccc4c(C#Cc4c5ccccc5c(C#Cc5c6ccccc6c(C#C[Si](C(C)C)(C(C)C)C(C)C)c6ccccc56)c5ccccc45)c4ccccc34)c3ccccc23)c2ccccc12)(C(C)C)C(C)C`, the absorption maximum (in Cc1ccccc1) worked out at 585 nm.
In the case of `COc1ccc(N(c2ccc(OC)cc2)c2ccc3ccc4c(B(c5c(C)cc(C)cc5C)c5c(C)cc(C)cc5C)ccc5ccc2c3c54)cc1`, the absorption maximum reads like this: (in C1CCOC1) 465 nm; (in CC(C)=O) 459 nm; (in CCCCCC) 463 nm; (in Cc1ccccc1) 469 nm; (in ClC(Cl)Cl) 461 nm; (in ClCCl) 461 nm.
With `CCCCCCCCCCOc1cc(OCCCCCCCCCC)cc(C2=C3C(C)=CC(/C=C/c4ccc(OC)cc4)=[N+]3[B-](F)(F)n3c(/C=C/c4ccc(OC)cc4)cc(C=Cc4ccc(OC)cc4)c32)c1`, the absorption maximum (in ClC(Cl)Cl) was determined as 665 nm.
As to `Cc1ccccc1C(=O)NN1C2=C(CC3=C1CC(C)(C)CC3=O)C(=O)CC(C)(C)C2`, the absorption maximum by setting is: (in C1CCOC1) 370 nm; (in CC#N) 370 nm; (in CC(C)=O) 368 nm; (in CCCCCO) 378 nm; (in CO) 376 nm; (in ClC(Cl)Cl) 370 nm. This compound also showed an absorption maximum (in ClCCl) of 368 nm.
The compound `CCCCCN1c2ccccc2Sc2cc(/C=C/c3ccc(/C=C(\C#N)C(=O)O)s3)ccc21` yielded an absorption maximum (in ClCCl) of 494 nm.
In the case of `N#Cc1ccc(-c2nc(-c3ccccc3)c3ccccn23)cc1`, the absorption maximum (in C1CCCCC1) turned out to be 377 nm; the absorption maximum (in CC#N) is recorded as 377 nm; the absorption maximum (in CO) stood at 372 nm; the absorption maximum (in ClCCl) came out at 380 nm; the absorption maximum (in O) amounted to 430 nm.
For `Cc1cc(-c2ccccc2C)cc(C)[o+]1`, the absorption maximum by setting is: (in CC#N) 327 nm; (in ClCCl) 343 nm.
On to `Cc1cccc2cc(-c3cc4cccc(C)c4oc3=O)oc12`, for which the absorption maximum runs as follows: (in CC#N) 369 nm; (in CCOC(C)=O) 370 nm; (in CS(C)=O) 373 nm; (in Cc1ccccc1) 376 nm; (in O) 367 nm.
Under “in ClCCl”, `O=[N+]([O-])c1cccc2c1ccc1[n+]2[B-](F)(F)n2c-1cc1c3ccccc3c3ccccc3c12` registered an absorption maximum of 518 nm.
`CC(C)(C)n1c(=O)c2cc3ccc4cccc5ccc(c2c1=O)c3c45`: the absorption maximum (in ClC(Cl)Cl) worked out at 423 nm.
Consider `N#Cc1ccc(-c2cn3ccc[n+]3[n-]2)cc1`, for which the absorption maximum (in ClCCl) worked out at 381 nm.
Consider `CCCN1/C(=C\c2c(-c3ccc(N(C)C)cc3)c(=O)c2=O)C=Cc2ccccc21`, for which the absorption maximum is on record as 358 nm (in C1CCCCC1), 362 nm (in Cc1ccccc1) and 509 nm (in ClCCl).
In the case of `CCN(CC)c1ccc(Nc2cc3oc(-c4ccc(C#N)cc4)nc3c3ccccc23)cc1`, the absorption maximum runs as follows: (in C1COCCO1) 420 nm; (in CC(C)=O) 420 nm; (in ClCCl) 420 nm; (in c1ccccc1) 420 nm.
Take `Fc1c(F)c(F)c([B-]2(c3c(F)c(F)c(F)c(F)c3F)Oc3c(ccc4c5c(ccc34)C=[N+](c3ccccc3)[B-](c3c(F)c(F)c(F)c(F)c3F)(c3c(F)c(F)c(F)c(F)c3F)O5)C=[N+]2c2ccccc2)c(F)c1F`: the absorption maximum (in C1CCOC1) amounted to 522 nm; the absorption maximum (in CC#N) is 515 nm; the absorption maximum (in CC(C)=O) worked out at 515 nm; the absorption maximum (in Cc1ccccc1) amounted to 531 nm; the absorption maximum (in ClCCl) was found to be 533 nm.
`N#Cc1ccc(N2c3ccccc3C(c3ccccc3)(c3ccccc3)c3ccccc32)cc1` returned an absorption maximum (in Cc1ccccc1) of 352 nm.
The compound `O=[N+]([O-])c1ccc(N/C=C/C=[NH+]c2ccc([N+](=O)[O-])cc2)cc1` gave an absorption maximum (in CS(C)=O) of 388 nm.
Compound `CC1(C)c2ccccc2N(c2ccc(-c3cc(-c4ccccc4)nc(-c4ccccc4)n3)cc2)c2ccccc21` registered an absorption maximum (in Cc1ccccc1) of 374.95 nm.
Take `O=c1c2ccccc2sc2ccc(-n3c4ccccc4c4ccccc43)cc12`: the absorption maximum runs as follows: (in C1CCOC1) 388 nm; (in CCCCCC) 388 nm; (in Cc1ccccc1) 388 nm; (in ClC(Cl)Cl) 388 nm; (in ClCCl) 388 nm.
Consider `c1ccc(-c2nc(-c3ccccc3)nc(-c3ccc(-n4c5ccccc5c5c6c(ccc54)-c4ccccc4C6(c4ccccc4)c4ccccc4)cc3)n2)cc1`, for which, for the setting “in Cc1ccccc1”, the absorption maximum amounted to 372 nm.
For the compound `Cc1ccc2c(c1)C1(c3ccccc3-c3ccccc31)c1cc(C)ccc1N2c1ccc2c(c1)Oc1ccccc1P2(=S)c1ccccc1` (centres undefined), the absorption maximum (in Cc1ccccc1) is 311.25 nm.
For the setting “in CO”, `COc1ccc(-c2nc(-c3cccc(C#N)c3)[nH]c2-c2ccc(OC)cc2)cc1` yielded an absorption maximum of 327 nm.
In turn, `CCCCc1ccc(-n2c3c4ccc(C(F)(F)F)cc4nnc3c3c2c2nnc4cc(C(F)(F)F)ccc4c2n3-c2ccc(CCCC)cc2)cc1` returned an absorption maximum (in Cc1ccccc1) of 322 nm.
As for `Cc1ccc(/C=C/c2nc3ccccc3s2)cc1`, the absorption maximum (in C1CCCCC1) is 345 nm and the absorption maximum (in CO) turned out to be 345 nm.
`CC(C)[Si](C#Cc1c2ccccc2c(C#C[Si](C(C)C)(C(C)C)C(C)C)c2nc3c4ccccc4c(=O)c4ccccc4c3nc12)(C(C)C)C(C)C` registered an absorption maximum (in ClCCl) of 509 nm.
`O=c1c2cc(F)c(N3CCOCC3)cc2oc2cc(N3CCOCC3)c(F)cc12` displayed an absorption maximum (in CCO) of 344 nm.
`CN(C)c1ccc(C2=CC3=C(c4ccc(C#N)cc4)[C@H]4c5ccccc5[C@]3(S2)c2ccccc24)cc1` yielded an absorption maximum (in ClCCl) of 436 nm.
Still for that read-out and setting: as for `CCCCN1C(=O)c2cc(Oc3ccc(C(C)(C)C)cc3)c3c4c(Oc5ccc(C(C)(C)C)cc5)cc5c(=O)[nH]/c(=C\c6ccc7ccccc7n6)c6cc(Oc7ccc(C(C)(C)C)cc7)c(c7c(Oc8ccc(C(C)(C)C)cc8)cc(c2c37)C1=O)c4c56`, the figure is 626 nm.
